{"source": "patent US20250387369A1", "about": "(priority 2022, published 2025)", "key": {"[1]": {"system": "Ebola virus-derived trVLP", "experiment": "microbe, parasite or virus in culture", "format": "cell-based", "conditions": "Zaire ebolavirus, Huh-7, 48 h"}, "[2]": {"system": "type A influenza virus (H1N1 subtype)", "experiment": "microbe, parasite or virus in culture", "format": "cell-based", "conditions": "H1N1, Calu-3, 48 h"}}, "note": "pIC50: −log10 of the molar value.", "data": [{"smiles": "CCC(CC)COC(=O)[C@H](C)N[P@](=O)(OC[C@H]1O[C@@](C#N)(c2ccc3c(N)ncnn23)[C@H](O)[C@@H]1O)Oc1ccccc1", "note": "[Remdesivir]", "values": [{"measurement": "pIC50", "setting": "[1]", "value": 7.00}]}, {"smiles": "NC(=O)c1nc(F)c[nH]c1=O", "note": "[Favipiravir]", "values": [{"measurement": "pIC50", "setting": "[2]", "value": 5.02}]}]}
